Biological target: T1, O^6-alkylguanine—DNA alkyltransferase (AGT) (Homo sapiens, UniProt P16455)
T1 sequence (P16455 1-207): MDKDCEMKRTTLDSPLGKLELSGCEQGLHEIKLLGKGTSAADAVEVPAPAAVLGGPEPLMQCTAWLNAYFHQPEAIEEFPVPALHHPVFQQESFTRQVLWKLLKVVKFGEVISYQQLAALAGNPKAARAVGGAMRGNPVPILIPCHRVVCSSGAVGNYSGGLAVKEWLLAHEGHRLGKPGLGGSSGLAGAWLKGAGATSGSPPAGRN

Substance: O^6-(thiophenemethyl)guanine [TMG]
- IC50: 23 nM
